In brackets after ≈: the same amount, converted by molar mass.
Tests used:
[1] = system: T. gondii RH-YFP tachyzoites; assay: In vitro challenge assay, RH strain YFP tachyzoites in HFF; assay type: cell-based; details: Toxoplasma gondii; RH-YFP tachyzoites in HFF; Figure 1A; read-out: Tachy IC50
Method: RH strain YFP Tachyzoites. Protocol was adapted from Fomovska et al. ([2012a],[b]) for HFF. HFF were cultured on a flat, clear-bottomed, black 96-well plate to 90–100% confluence. IMDM (1x, [+] glutamine, [+] 25 mM HEPES, [+] Phenol red, 10% FBS [Gibco, Denmark]) was removed and replaced with IMDM-C(1x, [+] glutamine, [+] 25 mM HEPES, [–] Phenol red, 10% FBS)[Gibco, Denmark]). RH-YFP, lysed from host cells by passing twice through a 27-gauge needle, were counted, then diluted to 32,000/mL in IMDM-C. HFF were infected with 3200 RH-YFP, then returned to 37°C, CO2 (5%) incubator for 1–2 h for infection. Various concentrations of the compounds in 20 μL IMDM-C were added to each well. There were triplicates for each condition. Controls were pyrimethamine/sulfadiazine (standard treatment), 0.1% DMSO only, HFF only, and untreated cultures of HFF infected with 2-fold dilutions of YFP expressing parasites (called “YFP gradient” to establish amount of color from known numbers of YFP expressing parasites). Cells were incubated at 37°C for 72 h. Plates were read using a fluorimeter (Synergy H4 Hybrid Reader, BioTek) to ascertain amount of relative fluorescence units (RFU) YFP, to measure parasite burden after treatment. Data were collected using Gen5 software with IC50 calculated by graphical analysis in Excel.
An initial screening assay of 10 μM, 1 μM, 100 nM, and 10 nM of the compounds was performed. Compounds were not considered effective or pursued for further analysis if there was no inhibition of tachyzoites at 1 μM. If compounds were effective at 1 μM, another experiment was performed to assess effect at 1 μM, 500, 250, 125, 62.5, and 31.25 nM.

[2] = Kinetic solubility in PBS pH 7.4 (Chem Partners); details: PBS, pH 7.4, aqueous buffer, kinetic from dmso stock
Method: The effects of changing R1 as 7-Et, 7-Me, 6-CF3, or 6-Me on activity against RH strain tachyzoites, kinetic solubility, and metabolic stability were compared. Kinetic solubility and metabolic stability in human or murine liver microsomes were measured. The hERG (human Ether-à-go-go-Related) liability was also determined. The hERG gene (KCNH2) encodes a protein Kv11.1, the alpha subunit of a potassium ion channel. This channel conducts the rapid component of the delayed rectifier potassium current, IKr, which is critical for repolarization of cardiac action potentials. A reduction in hERG currents from adverse drug effects can lead to long QT interval syndromes. These syndromes are characterized by action potential prolongation, lengthening of the QT interval on surface EKG, and an increased risk for “torsade de pointes” arrhythmias and sudden death. The MDCK-MDR1 Permeability Assay was also performed. MDCK-MDR1 refers to the ability of a compound to permeate across membranes of MDCK-MDR1 (Madin Darby canine kidney [MDCK] cells with the MDR1 gene [ABCB1], the gene encoding for the efflux protein, P-glycoprotein (P-gp)) in vitro. Assessing transport in both directions (apical to basolateral and basolateral to apical) across the cell monolayers enables an efflux ratio to be determined. […] This provides a prediction of blood brain barrier (BBB) penetration potential/permeability and efflux ratio. Effect in CACO-2 (Colon Adenocarcinoma cells) as a permeability assay and on cytochrome P450 (CYP 450) were also determined. CYP enzymes catalyze oxidative biotransformation (phase 1 metabolism) of most drugs. CYP enzymes, bind to membranes in a cell (cyto) and contain a heme pigment (chrome and P) that absorbs light at a wavelength of 450 nm when exposed to carbon monoxide. Metabolism of a drug by CYP enzymes is a major source of variability in drug effect. These were measured by Chem Partners. The relative effect on HFF and parasite enzymes also were compared.

[3] = target: T1, P. falciparum bc1 complex cytochrome c reductase (Pfbc1) (Plasmodium falciparum, UniProt Q02768); assay: Pfbc1 native assay (cytochrome c reduction by parasite extract); assay type: biochemical; details: atovaquone 1 μM positive control, X ± S.D., N = 4
T1 construct: Parasite extract was then prepared by disruption with a sonicating probe; endogenous in cells; host or cells: P. falciparum strain 3D7 blood-stage culture, sonicated parasite extract
T1 sequence (Q02768 1-376): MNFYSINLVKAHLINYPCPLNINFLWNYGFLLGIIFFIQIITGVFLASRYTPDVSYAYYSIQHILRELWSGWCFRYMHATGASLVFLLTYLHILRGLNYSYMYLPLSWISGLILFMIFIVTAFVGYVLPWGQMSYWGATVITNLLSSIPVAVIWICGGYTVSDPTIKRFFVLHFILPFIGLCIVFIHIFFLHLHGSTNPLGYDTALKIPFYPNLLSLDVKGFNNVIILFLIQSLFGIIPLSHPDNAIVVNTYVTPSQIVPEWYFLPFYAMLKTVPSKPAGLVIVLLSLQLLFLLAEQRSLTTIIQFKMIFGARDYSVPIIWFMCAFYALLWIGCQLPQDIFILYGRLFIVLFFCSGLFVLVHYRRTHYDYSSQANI
Method: P. falciparum 3D7 strain were obtained from the Liverpool School of Tropical Medicine. Protease cocktail inhibitor was obtained from Roche. Bradford protein assay dye reagent was obtained from Bio-Rad. All other reagents were obtained from Sigma-Aldrich. Decylubiquinol was produced as per Fisher et al. ([2009]). In brief, 25 mg of decylubiquinone were dissolved in 400 μL of nitrogen-saturated hexane. An equal volume of aqueous 1 M sodium dithionite was added, and the mixture vortexed until colorless. The organic phase containing the decylubiquinol was collected, the solvent was evaporated under N2 and the decylubiquinol finally dissolved in 100 μL of 96% ethanol (acidified with 10 mM HCl). Concentrations of decylubiquinol was determined spectrophotometrically on a Cary 300 Bio UV/visible spectrophotometer (Varian, UK) from absolute spectra, using ε288−−320 = 8.1 mM^−1.cm^−1. Decylubiquinol was stored at −80°C and used within 2 weeks. […]
The protocol for the preparation of parasite extract was adapted from Fisher et al. ([2009]). […] The protein concentration of the parasite extract was determined by Bradford protein assay (Bio-Rad).
P. falciparum bc1 complex cytochrome c reductase (Pfbc1) activity was measured by monitoring cytochrome c reduction at 550 vs. 542 nm using a Cary 300 Bio UV-Visible Spectrophotometer (Varian, UK), using a protocol adapted from Fisher et al. ([2009]). […]

P. berghei sporozoites = system: P. berghei sporozoites; parameters: method as in Doggett et al., 2012; Frueh et al., 2017; details: doses between 1 and 20 mg/kg, not the prodrug; ref Doggett et al., 2012; Frueh et al., 2017; cited from earlier work

Structure (SMILES) | IC50 [1] [nM] | solubility kinetic [2] [µM] | inhibition at 1 µM [3] [%] | efficacy in the in vivo malaria model (P. berghei sporozoites)
O=c1c2c([nH]c(CO)c1-c1ccc(Oc3ccc(OC(F)(F)F)cc3)cc1)CCCC2 [JAG099] | 380 | 4.05 (≈ 1.75 µg/mL) | 81.3 ± 6 | 
COc1cc2[nH]c(C)c(-c3ccc(Oc4ccc(OC(F)(F)F)cc4)cc3)c(=O)c2cc1Cl [ELQ 300] |  |  |  | not effective

— paper PMC7311950, “Potent Tetrahydroquinolone Eliminates Apicomplexan Parasites” (Frontiers in Cellular and Infection Microbiology, 2020)
